Laboratory results from ChEMBL document CHEMBL1201862, “PubChem BioAssay data set” (2004).
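Results reflect a 48-hour exposure of cells in 96-well plates to compound at five concentrations. The concentration for 50% growth inhibition is given as GI50.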 Active and inactive are the calls of the source. Rule as the data show it: active = GI50 up to about 1.1 µM and inactive = higher. Where a SMILES comes first, the peptide text is derived from it. [ ]: non-standard residue; d: D form. The star is where a group is joined. ξ: configuration not given here. ξNMe2Val = CC(C)C(C(=O)*)N(C)C; NMeV = CN[CH](C(=O)O)C(C)C; NHBn = c1ccc(CN*)cc1; CH2Cl = ClC*

Experiments:
Experiment in all cases: NCI anticancer screen, dose series, 48 h
[1] = tested on: ACHN
[2] = tested on: COLO 205
[3] = tested on: DU-145
[4] = tested on: EKVX
[5] = tested on: HCC 2998
[6] = tested on: HL-60
[7] = tested on: HOP-62
[8] = tested on: K562
[9] = tested on: LOX IMVI
[10] = tested on: M14
[11] = tested on: NCI-H226
[12] = tested on: NCI-H460
[13] = tested on: NCI-H522
[14] = tested on: SF-268
[15] = tested on: SF-539
[16] = tested on: SK-MEL-2
[17] = tested on: SN12C
[18] = tested on: SNB-19
[19] = tested on: U-251
[20] = tested on: UACC-257

SMILES | GI50 [1] | GI50 [2] | GI50 [3] | GI50 [4] | GI50 [5] | GI50 [6] | GI50 [7] | GI50 [8] | GI50 [9] | GI50 [10] | GI50 [11] | GI50 [12] | GI50 [13] | GI50 [14] | GI50 [15] | GI50 [16] | GI50 [17] | GI50 [18] | GI50 [19] | GI50 [20]
O=C(N/N=C/c1c(-c2ccccc2)no[n+]1[O-])N1CCOCC1 | > 100 µM (inactive) | > 100 µM (inactive) | > 100 µM (inactive) | > 100 µM (inactive) | > 100 µM (inactive) | 23.3 µM (inactive) | > 100 µM (inactive) | > 100 µM (inactive) | > 100 µM (inactive) | > 100 µM (inactive) | > 100 µM (inactive) | > 100 µM (inactive) | > 100 µM (inactive) | > 100 µM (inactive) | > 100 µM (inactive) | > 100 µM (inactive) | > 100 µM (inactive) | > 100 µM (inactive) | > 100 µM (inactive) | > 100 µM (inactive)
Cc1cc(=O)n2c3c(c4c(cc13)c(CN(C)C)cc(=O)n4C)OC2 | 4.97 µM (inactive) | 11.7 µM (inactive) | 20 µM (inactive) | 20.6 µM (inactive) | 6.93 µM (inactive) | 22.2 µM (inactive) | 15.2 µM (inactive) | 29.8 µM (inactive) | 13.2 µM (inactive) | 15.6 µM (inactive) | 9.04 µM (inactive) | 4.46 µM (inactive) | 0.9 µM (active) | 15.5 µM (inactive) | 7.18 µM (inactive) | 20.3 µM (inactive) | 20.3 µM (inactive) | 15.8 µM (inactive) | 32.4 µM (inactive) | 21.9 µM (inactive)
CC(C)C(NC(=O)C(C(C)C)N(C)C)C(=O)N(C)C(C(=O)N1CCCC1C(=O)N1CCCC1C(=O)NCc1ccccc1)C(C)C (stereo not given) (ξNMe2Val-V[NMeV]PP-NHBn; configuration not given here) | < 0.0001 µM (active) | < 0.0001 µM (active) | < 0.0001 µM (active) | 0.0187 µM (active) | < 0.0001 µM (active) | < 0.0001 µM (active) | < 0.0001 µM (active) | 0.001 µM (active) | < 0.0001 µM (active) | < 0.0001 µM (active) | < 0.0001 µM (active) | < 0.0001 µM (active) | < 0.01 µM (active) | < 0.0001 µM (active) | < 0.01 µM (active) | < 0.0001 µM (active) | < 0.0001 µM (active) | < 0.01 µM (active) | < 0.0001 µM (active) | < 0.0001 µM (active)
O=c1cc(-c2ccccc2)[nH]c2ccc(N3CCOCC3)cc12 | 0.0611 µM (active) | 0.0182 µM (active) | 0.038 µM (active) | 53 µM (inactive) | 0.0468 µM (active) | 0.0151 µM (active) | 0.0241 µM (active) | < 0.0127 µM (active) | 0.0335 µM (active) | 0.0173 µM (active) | 0.0319 µM (active) | 0.0465 µM (active) | 0.0173 µM (active) | 0.0407 µM (active) | < 0.0149 µM (active) | 22.5 µM (inactive) | 0.0467 µM (active) | 0.0434 µM (active) | 0.0185 µM (active) | > 100 µM (inactive)
CC(=O)NC(CC(C)C)C(=O)NC(Cc1ccccc1)C(=O)CCl (stereo not drawn) (Ac-Leu-Phe-CH2Cl; configuration not given here) | 11.1 µM (inactive) | 5.43 µM (inactive) | 12.1 µM (inactive) | 21.1 µM (inactive) | 14.9 µM (inactive) | 2.21 µM (inactive) | 18.3 µM (inactive) | 1.63 µM (inactive) | 2.67 µM (inactive) | 6.89 µM (inactive) | 21.6 µM (inactive) | 20.8 µM (inactive) | 2.51 µM (inactive) | 17.9 µM (inactive) | 18.1 µM (inactive) | 10.3 µM (inactive) | 13.4 µM (inactive) | 20 µM (inactive) | 16.6 µM (inactive) | 7.73 µM (inactive)
